Source: US10294202B2, “Pyrrolidinones as herbicides” (FMC Corporation, priority 2013, dated 2019)

Assays:
Assay in all cases: Test E preemergence herbicide test
Set-up in all cases: key: 0 = no effect, 100 = complete control
velvetleaf = format: in vivo, Abutilon theophrasti
From the text: (§1) Seeds of plant species selected from corn (Zea mays), soybean (Glycine max), velvetleaf (Abutilon theophrasti), lambsquarters (Chenopodium album), wild poinsettia (Euphorbia heterophylla), pigweed, palmer (palmer pigweed, Amaranthus palmeri), waterhemp (common waterhemp, Amaranthus rudis), surinam grass (Brachiaria decumbens), crabgrass, large (large crabgrass, Digitaria sanguinalis), crabgrass, Brazil (Brazilian crabgrass, Digitaria horizontalis), panicum, fall (fall panicum, Panicum dichotomiflorum), foxtail, giant (giant foxtail, Setaria faberii), foxtail, green (green foxtail, Setaria viridis), goosegrass (Eleusine indica), johnsongrass (Sorghum halepense), ragweed (common ragweed, Ambrosia elatior), barnyardgrass (Echinochloa crus-galli), sandbur (southern sandbur, Cenchrus echinatus), arrowleaf […] rhombifolia), ryegrass, Italian (Italian ryegrass, Lolium multiflorum), dayflower, VA (Virginia dayflower, Commelina virginica), field bindweed (Convolvulus arvensis), morningglory (Ipomoea coccinea), nightshade (eastern black nightshade, Solanum ptycanthum), kochia (Kochia scoparia), nutsedge, yellow (yellow nutsedge, Cyperus esculentus), cocklebur (common cocklebur, Xanthium strumarium), smartweed (ladysthumb smartweed, Polygonum Persicaria) and beggarticks (hairy beggarticks, Bidens pilosa), were planted into a silt loam soil and treated preemergence with test chemicals formulated in a non-phytotoxic solvent mixture which included a surfactant. Treated plants and controls were maintained in a greenhouse for 21 days, after which time all species were compared to controls and visually evaluated. Plant response ratings, summarized in Table E, are based on a scale of 0 to 100 where 0 is no effect and 100 is complete control. A dash (-) response means no test result.

lambsquarters = format: in vivo, Chenopodium album
From the text: as §1

arrowleaf sida = format: in vivo, Sida rhombifolia
From the text: as §1

ryegrass, Italian = format: in vivo, Lolium multiflorum
From the text: as §1

morningglory = format: in vivo, Ipomoea coccinea
From the text: as §1

beggarticks = format: in vivo, Bidens pilosa
From the text: as §1

SMILES: O=C1NCC(c2ccc(F)cc2)C1C(=O)Nc1ccccc1F (racemic) [Compound 16]
- Plant response rating, Velvetleaf (velvetleaf; 16 g ai/ha): 0
- Plant response rating, Velvetleaf (velvetleaf; 31 g ai/ha): 0
- Plant response rating, Velvetleaf (velvetleaf; 62 g ai/ha): 0
- Plant response rating, Velvetleaf (velvetleaf; 125 g ai/ha): 0
- Plant response rating, Velvetleaf (velvetleaf; 250 g ai/ha): 0
- Plant response rating, Lambsquarters (lambsquarters; 16 g ai/ha): 0
- Plant response rating, Lambsquarters (lambsquarters; 31 g ai/ha): 0
- Plant response rating, Lambsquarters (lambsquarters; 62 g ai/ha): 0
- Plant response rating, Lambsquarters (lambsquarters; 250 g ai/ha): 0
- Plant response rating, Arrowleaf Sida (arrowleaf sida; 16 g ai/ha): 0
- Plant response rating, Arrowleaf Sida (arrowleaf sida; 31 g ai/ha): 0
- Plant response rating, Arrowleaf Sida (arrowleaf sida; 62 g ai/ha): 0
- Plant response rating, Arrowleaf Sida (arrowleaf sida; 125 g ai/ha): 0
- Plant response rating, Arrowleaf Sida (arrowleaf sida; 250 g ai/ha): 0
- Plant response rating, Ryegrass, Italian (ryegrass, Italian; 16 g ai/ha): 0
- Plant response rating, Ryegrass, Italian (ryegrass, Italian; 31 g ai/ha): 0
- Plant response rating, Ryegrass, Italian (ryegrass, Italian; 62 g ai/ha): 0
- Plant response rating, Ryegrass, Italian (ryegrass, Italian; 125 g ai/ha): 0
- Plant response rating, Ryegrass, Italian (ryegrass, Italian; 250 g ai/ha): 30
- Plant response rating, Morningglory (morningglory; 16 g ai/ha): 0
- Plant response rating, Morningglory (morningglory; 31 g ai/ha): 0
- Plant response rating, Morningglory (morningglory; 62 g ai/ha): 0
- Plant response rating, Morningglory (morningglory; 125 g ai/ha): 0
- Plant response rating, Morningglory (morningglory; 250 g ai/ha): 0
- Plant response rating, Beggarticks (beggarticks; 16 g ai/ha): 0
- Plant response rating, Beggarticks (beggarticks; 125 g ai/ha): 0
- Plant response rating, Beggarticks (beggarticks; 250 g ai/ha): 0

SMILES: O=C1NCC(c2cccc(Br)c2)C1C(=O)Nc1ccccc1F (stereo not drawn) [Compound 66]
- Plant response rating, Velvetleaf (velvetleaf; 16 g ai/ha): 0
- Plant response rating, Velvetleaf (velvetleaf; 31 g ai/ha): 0
- Plant response rating, Velvetleaf (velvetleaf; 62 g ai/ha): 0
- Plant response rating, Velvetleaf (velvetleaf; 125 g ai/ha): 0
- Plant response rating, Velvetleaf (velvetleaf; 250 g ai/ha): 0
- Plant response rating, Lambsquarters (lambsquarters; 16 g ai/ha): 0
- Plant response rating, Lambsquarters (lambsquarters; 31 g ai/ha): 0
- Plant response rating, Lambsquarters (lambsquarters; 62 g ai/ha): 0
- Plant response rating, Lambsquarters (lambsquarters; 125 g ai/ha): 0
- Plant response rating, Lambsquarters (lambsquarters; 250 g ai/ha): 0
- Plant response rating, Arrowleaf Sida (arrowleaf sida; 16 g ai/ha): 0
- Plant response rating, Arrowleaf Sida (arrowleaf sida; 31 g ai/ha): 0
- Plant response rating, Arrowleaf Sida (arrowleaf sida; 62 g ai/ha): 0
- Plant response rating, Arrowleaf Sida (arrowleaf sida; 125 g ai/ha): 0
- Plant response rating, Arrowleaf Sida (arrowleaf sida; 250 g ai/ha): 0
- Plant response rating, Ryegrass, Italian (ryegrass, Italian; 16 g ai/ha): 0
- Plant response rating, Ryegrass, Italian (ryegrass, Italian; 31 g ai/ha): 0
- Plant response rating, Ryegrass, Italian (ryegrass, Italian; 62 g ai/ha): 0
- Plant response rating, Ryegrass, Italian (ryegrass, Italian; 125 g ai/ha): 0
- Plant response rating, Ryegrass, Italian (ryegrass, Italian; 250 g ai/ha): 0
- Plant response rating, Morningglory (morningglory; 16 g ai/ha): 0
- Plant response rating, Morningglory (morningglory; 31 g ai/ha): 0
- Plant response rating, Morningglory (morningglory; 62 g ai/ha): 0
- Plant response rating, Morningglory (morningglory; 125 g ai/ha): 0
- Plant response rating, Morningglory (morningglory; 250 g ai/ha): 0
- Plant response rating, Beggarticks (beggarticks; 16 g ai/ha): 0
- Plant response rating, Beggarticks (beggarticks; 31 g ai/ha): 0
- Plant response rating, Beggarticks (beggarticks; 62 g ai/ha): 0
- Plant response rating, Beggarticks (beggarticks; 125 g ai/ha): 0
- Plant response rating, Beggarticks (beggarticks; 250 g ai/ha): 0

SMILES: O=C1NCC(c2ccc(C(F)(F)F)cc2)C1C(=O)Nc1ccc(F)c(F)c1F (stereo not drawn) [Compound 232]
- Plant response rating, Velvetleaf (velvetleaf; 31 g ai/ha): 0
- Plant response rating, Velvetleaf (velvetleaf; 62 g ai/ha): 0
- Plant response rating, Velvetleaf (velvetleaf; 125 g ai/ha): 20
- Plant response rating, Velvetleaf (velvetleaf; 250 g ai/ha): 80
- Plant response rating, Lambsquarters (lambsquarters; 31 g ai/ha): 95
- Plant response rating, Lambsquarters (lambsquarters; 62 g ai/ha): 98
- Plant response rating, Lambsquarters (lambsquarters; 125 g ai/ha): 100
- Plant response rating, Lambsquarters (lambsquarters; 250 g ai/ha): 98
- Plant response rating, Arrowleaf Sida (arrowleaf sida; 31 g ai/ha): 0
- Plant response rating, Arrowleaf Sida (arrowleaf sida; 62 g ai/ha): 20
- Plant response rating, Arrowleaf Sida (arrowleaf sida; 125 g ai/ha): 65
- Plant response rating, Arrowleaf Sida (arrowleaf sida; 250 g ai/ha): 90
- Plant response rating, Ryegrass, Italian (ryegrass, Italian; 31 g ai/ha): 0
- Plant response rating, Ryegrass, Italian (ryegrass, Italian; 62 g ai/ha): 10
- Plant response rating, Ryegrass, Italian (ryegrass, Italian; 125 g ai/ha): 20
- Plant response rating, Ryegrass, Italian (ryegrass, Italian; 250 g ai/ha): 40
- Plant response rating, Morningglory (morningglory; 31 g ai/ha): 0
- Plant response rating, Morningglory (morningglory; 62 g ai/ha): 0
- Plant response rating, Morningglory (morningglory; 125 g ai/ha): 0
- Plant response rating, Morningglory (morningglory; 250 g ai/ha): 35
- Plant response rating, Beggarticks (beggarticks; 31 g ai/ha): 0
- Plant response rating, Beggarticks (beggarticks; 62 g ai/ha): 0
- Plant response rating, Beggarticks (beggarticks; 125 g ai/ha): 20
- Plant response rating, Beggarticks (beggarticks; 250 g ai/ha): 60
